Values quoted from earlier work as cited in patent US9878046B2, “Adverse side-effects associated with administration of an anti-hyaluronan agent and methods for ameliorating or preventing the side-effects” (Halozyme, Inc., priority 2010, dated 2018).

Legend:
B16 melanoma model = details: oral administration at 600 mg/kg/d; cited from earlier work
[1] = glucocorticoid, route IV or PO as listed; cited from earlier work

SMILES: Cc1cc(=O)oc2cc(O)ccc12 [4-MU, 4-Methylumbelliferone]
- reduction of metastases (B16 melanoma model): 64%

SMILES: C[C@H]1C[C@@H]2[C@H]([C@@H](O)C[C@@]3(C)[C@H]2CC[C@]3(O)C(=O)COC(=O)CCC(=O)O)[C@@]2(C)C=CC(=O)C=C12 [Methylprednisolone sodium succinate]
- Equivalent Potency [1]: 4 mg

SMILES: C[C@]12CCC(=O)C=C1CC[C@@H]1[C@@H]2[C@@H](O)C[C@@]2(C)[C@H]1CC[C@]2(O)C(=O)CO [Hydrocortisone]
- Equivalent Potency [1]: 20 mg

SMILES: C[C@]12C=CC(=O)C=C1CC[C@@H]1[C@@H]2[C@@H](O)C[C@@]2(C)[C@H]1CC[C@]2(O)C(=O)CO [Prednisolone]
- Equivalent Potency [1]: 5 mg
